Reference: article PMC8073907, “Peptide targeting of lysophosphatidylinositol-sensing GPR55 for osteoclastogenesis tuning” (Cell Communication and Signaling : CCS, 2021)
Read-outs that look alike come from different tables or passages of the source. Bridge positions count the residues as written; N and C are the ends. Ends that are not written are not given here.

How the values were obtained:
RAW264.7 cells [1] = experiment: RANKL-induced transcription of osteoclastogenesis markers in RAW264.7 cells (real-time PCR); type: cell-based, murine; settings: 72 h
Procedure: Total RNA was extracted using RNeasy isolation kits, cDNAs were obtained using QuantiTect Reverse Transcription kits, and real-time PCRs were performed with QuantiTect SYBR Green PCR kits (all from Qiagen, Hilden, Germany), according to the manufacturer instructions. The primers used for the real-time PCRs and their annealing temperatures are listed in the Additional file 1: Table S1. Human hypoxanthine phosphoribosyltransferase 1 (HPRT1) or murine β2-microglobulin were followed as housekeeping genes. The real-time PCR programme consisted of an initial 15 min at 95 °C, and then 45 cycles as follows: 94 °C for 15 s, annealing temperature of each primer for 30 s, and 72 °C for 30 s. The real-time PCR machine used was a LightCycler 480 Instrument II (Roche, Indianapolis, IN, USA).
(§1) For transient interference of Gpr55, RAW264.7 cells were plated at 6 × 10^5 cells/well in six-well plates in growth medium without antibiotics. Twenty-four hours later, the cells were transfected with 250 pmol/well non-targeting small-interfering (si)RNAs (si-NT; siGENOME siRNA Pool #2; D-001206-14; Dharmacon, Chicago, IL, USA) or Gpr55-specific siRNAs (si-GPR55; siGENOME mouse GPR55 SMART pool; M-043590-01; Dharmacon) using Lipofectamine LTX and Plus Reagent, according to the manufacturer instructions. Twenty-four hours later, the cells were plated for the different assays or for RNA extraction. The efficiency of interference was monitored by real-time PCR after 72 h of interference, using the primers listed in the Additional file 1: Table S1. β2-microglobulin was followed as a housekeeping gene.
For the osteoclastogenesis in-vitro assay, RAW264.7 cells were plated in differentiation medium (α-MEM with 10% heat-inactivated FBS, 2 mM L-glutamine, 100 U/mL penicillin, and 100 ug/mL streptomycin) at a density of 5 × 10^3 cells/well in 24-well plates on coverslips for morphological analysis, or at 2 × 10^4 cells/well in six-well plates for RNA extraction. Twenty-four hours later and every 48 h, the medium was replaced and the cells were treated with 15–30 ng/mL RANKL with DMSO and/or PBS as carriers, or with GPR55 antagonists/ agonists (0.5 µM ML-191, 30 µM O1918, 0.5 µM CBD, 0.5 μM CID16020046 1 µM soybean LPI, 1 μM ML-184), or with the peptides (150 nM peptide-P1; or the irrelevant peptide, Irr_P). Twenty-four hours after the last addition, the cells were fixed with 4% paraformaldehyde for morphological analyses or harvested for RNA extraction (see above).

[2] = tested on: osteoclasts derived from RAW264.7 cells; experiment: Osteoclast functional assay (bone resorption on bovine cortical bone slices); type: cell-based, murine; settings: 0.5 µM CID16020046, 15 ng/mL RANKL, 7 days
Procedure: RAW264.7 cells were plated in differentiation medium at a density of 1250 cells/100 µL on 0.2-mm-thick bovine cortical bone slices (BoneSlices.com, Jelling, Denmark) in 96-well plates. Six hours later, 100 µL differentiation medium with RANKL (15 ng/mL, final concentration) was added, in the presence of a carrier or in combination with the GPR55 modulators. The media with the different compounds were replaced every 48 h, for a total of 7 days. At the end of this period, the cells were detached with a 10% bleach solution, and the resorption excavations were visualised by using Toluidine Blue staining (Sigma-Aldrich). Images of the resorption areas were obtained under the microscope (SW380T; Swift Optical Instruments, Inc., TX, USA) using the 10 × objective, and acquired with a digital camera (Swiftcam SC1003; Swift Optical Instruments, Inc.). The total eroded surface underwent blinded quantification using ImageJ (NIH), and was subdivided into pit and trench surfaces. Pits were characterised as round excavations with well-defined edges where the ratio between length and width was < 2.0. Trenches were defined as elongated excavations with well-defined edges whose length was at least twice the wide, and with clear signs of continued resorption. The prevalence of trenches was calculated as a proportion (%) of the trench surface relative to the total eroded surface.

GPR55 = settings: ref [55]; cited from earlier work
Procedure: GPR55 involvement in osteoclast functions was directly assessed using in-vitro assays of bone resorbing activity. As the transient silencing by GPR55-specific siRNAs in precursor cells was not applicable to this long-term differentiation assay, pharmacological perturbation of GPR55 was carried out with only the most specific antagonists (ML-191, CID16020046) and LPI. RAW264.7 cells were plated on cortical bone slices and RANKL-differentiated for 7 days in the absence or presence of the different GPR55 regulators. At the end of the differentiation, the cells were detached and the resorbing area ...

ssGPR55-K80A = experiment: GPR55-internalisation assay, K80A mutant (FACS); type: cell-based, human; settings: data not shown
Excerpt: The construct of haemagglutinin (HA)-tagged human GPR55 in pcDNA3 (HA-GPR55) was a gift from Prof. K. Mackie, Indiana University, Bloomington, IN, USA [39], while the construct ss-3 × HA-GPR55 in pcDNA3.1 (ssGPR55) with a triple HA tag at the N-terminus and an optimised signal sequence (ss, derived from amino acids 1–33 of the human growth hormone: […]) for efficient surface expression was from Prof. A. Irving, Dundee University, UK [40]. For both constructs, mutations were introduced by site-directed mutagenesis using QuickChange kits (Stratagene, La Jolla, CA, USA), according to the manufacturer instructions. The primers for the K80A mutation were 5′-[…]-3′ and 5′-[…]-3′ (Tm, 70.6 °C), and for Q87A were 5′-[…]-3′ and 5′-[…]-3′ (Tm, 73.1 °C).
HeLa cells were plated at 1.5 × 10^5 cells/well in six-well plates in their growth medium without antibiotics. […]
For the GPR55-internalisation assay, after stimulation, the HeLa cells were washed twice with cold HBSS^++, stained while adhered with the monoclonal anti-HA antibody (1:1000) in PBS plus 3% BSA for 1 h on ice, washed three times with cold PBS, incubated with the Alexa488-tagged anti-mouse antibody (1:800) in PBS plus 3% BSA for 45 min on ice. […] The collected cells were centrifuged at 300×g, suspended in PBS plus 3% BSA, and analysed by FACS.

RAW264.7 cells [3] = experiment: Osteoclast syncytium formation (nuclei/cell); type: cell-based, murine; settings: 150 nM (0.2 µg/mL) peptide, 72 h RANKL
Procedure: as §1
For the evaluation of osteoclast syncytium formation, the nuclei of multinucleated cells were counted in a blinded manner using a 63 × objective, moving across the coverslip in the vertical and horizontal directions.
For the osteoclastogenesis in-vitro assay, RAW264.7 cells were plated in differentiation medium (α-MEM with 10% heat-inactivated FBS, 2 mM L-glutamine, 100 U/mL penicillin, and 100 ug/mL streptomycin) at a density of 5 × 10^3 cells/well in 24-well plates on coverslips for morphological analysis, or at 2 × 10^4 cells/well in six-well plates for RNA extraction. […]

[4] = tested on: EHEB and DeFew cells (two human B-lymphoblastoid cell lines); settings: ref [38], cited from earlier work
human GPR55 = settings: ref [38]; cited from earlier work
Excerpt: GPR55 is overexpressed in several tumour cells, with GPR55 expression shown to correlate with tumour aggressiveness and GPR55 activation to promote cancer-cell proliferation both in cell culture and in xenografts in mice. Therefore, we previously attempted to identify peptides that bind to human GPR55, for innovative targeting of GPR55 for potential therapeutic and/or diagnostic applications. Osteoclasts are also among the cells with the highest expression of GPR55 [9], and as GPR55 is involved in their differentiation, its targeting might be instrument ...

[5] = 150 nM (0.2 µg/mL) peptide, 15 ng/mL RANKL, three independent experiments

Molecule	reduction of LPI-stimulated Ctr transcription (RAW264.7 cells [1]; RANKL 15 ng/mL, 1 µM soybean LPI, 0.5 µM CID16020046) [%]	block of LPI-stimulated Nfatc1 transcription (RAW264.7 cells [1]; RANKL 15 ng/mL, 1 µM soybean LPI, 0.5 µM ML-191 or 0.5 µM CID16020046)	inhibition of RANKL-promoted osteoclast degrading activity [2]	reduction of relative trench contribution compared to RANKL ([2]; p < 0.05)	mode of action on GPR55 (GPR55)	regulation of wild-type and GPR55-K80A mutant internalisation (ssGPR55-K80A)	inhibition of osteoclast maturation (five differentiation markers) (RAW264.7 cells [1]; 150 nM (0.2 µg/mL) peptide, 15 ng/mL RANKL)	reduction of RANKL-induced Cathepsin-k mRNA by peptide (RAW264.7 cells [1]; [5]) [%]	reduction of RANKL-induced Ctr mRNA by peptide (RAW264.7 cells [1]; [5]) [%]	reduction of RANKL-induced Mmp-9 mRNA by peptide (RAW264.7 cells [1]; [5]) [%]	reduction of RANKL-induced Nfatc1 mRNA by peptide (RAW264.7 cells [1]; [5]) [%]	reduction of RANKL-induced Trap mRNA by peptide (RAW264.7 cells [1]; [5]) [%]	effect on RANKL-induced osteoclast syncytium formation, peptide (RAW264.7 cells [3])	inhibition of GPR55-dependent proliferation [4]	inhibition of GPR55-dependent proliferation ([4]; listed as Peptide-P1)	competition with LPI action (human GPR55)	human GPR55 internalisation (human GPR55)
Cc1ccc(-c2n[nH]c3c2C(c2cccc(O)c2)N(c2ccc(C(=O)O)cc2)C3=O)cc1 (centres unmarked) [CID16020046]	50	completely blocked	only slightly inhibited	about 30%	GPR55 inverse agonist												
CKKNSPTLC (disulfide 1-9 (inferred)) [peptide-P1]						comparable regulation of both wild-type and GPR55-K80A mutant internalisation	significant inhibition of osteoclast maturation	40	35	50	30	35	did not have any significant effects	inhibited GPR55-dependent proliferation of two human B-lymphoblastoid cell lines	inhibit GPR55-dependent proliferation of EHEB and DeFew cells	did not compete with LPI action	inducing human GPR55 internalisation in a β-arrestin–independent manner
